# Laboratory results taken from patent US9109043B2 (Tokyo Institute of Technology, priority 2010, dated 2015).
# “Also recorded” adds a separate entry of the source. Read-outs that look alike come from different tables or passages of the source.
# How the values were obtained:
# [1] = target: T1, insulin secretion regulation factor (Mus musculus, UniProt Q6P5E4); experiment: Partial protease digestion of radiolabelled insulin secretion regulation factor in presence of amino acid; format: binding; parameters: made in house; host or cells: cell-free: TNT Quick coupled transcription/translation system (Promega); conditions: 100 μM arginine, on ice 10 minutes, vs absence, phenylalanine or leucine
# Target sequence in this assay (Q6P5E4 whole entry): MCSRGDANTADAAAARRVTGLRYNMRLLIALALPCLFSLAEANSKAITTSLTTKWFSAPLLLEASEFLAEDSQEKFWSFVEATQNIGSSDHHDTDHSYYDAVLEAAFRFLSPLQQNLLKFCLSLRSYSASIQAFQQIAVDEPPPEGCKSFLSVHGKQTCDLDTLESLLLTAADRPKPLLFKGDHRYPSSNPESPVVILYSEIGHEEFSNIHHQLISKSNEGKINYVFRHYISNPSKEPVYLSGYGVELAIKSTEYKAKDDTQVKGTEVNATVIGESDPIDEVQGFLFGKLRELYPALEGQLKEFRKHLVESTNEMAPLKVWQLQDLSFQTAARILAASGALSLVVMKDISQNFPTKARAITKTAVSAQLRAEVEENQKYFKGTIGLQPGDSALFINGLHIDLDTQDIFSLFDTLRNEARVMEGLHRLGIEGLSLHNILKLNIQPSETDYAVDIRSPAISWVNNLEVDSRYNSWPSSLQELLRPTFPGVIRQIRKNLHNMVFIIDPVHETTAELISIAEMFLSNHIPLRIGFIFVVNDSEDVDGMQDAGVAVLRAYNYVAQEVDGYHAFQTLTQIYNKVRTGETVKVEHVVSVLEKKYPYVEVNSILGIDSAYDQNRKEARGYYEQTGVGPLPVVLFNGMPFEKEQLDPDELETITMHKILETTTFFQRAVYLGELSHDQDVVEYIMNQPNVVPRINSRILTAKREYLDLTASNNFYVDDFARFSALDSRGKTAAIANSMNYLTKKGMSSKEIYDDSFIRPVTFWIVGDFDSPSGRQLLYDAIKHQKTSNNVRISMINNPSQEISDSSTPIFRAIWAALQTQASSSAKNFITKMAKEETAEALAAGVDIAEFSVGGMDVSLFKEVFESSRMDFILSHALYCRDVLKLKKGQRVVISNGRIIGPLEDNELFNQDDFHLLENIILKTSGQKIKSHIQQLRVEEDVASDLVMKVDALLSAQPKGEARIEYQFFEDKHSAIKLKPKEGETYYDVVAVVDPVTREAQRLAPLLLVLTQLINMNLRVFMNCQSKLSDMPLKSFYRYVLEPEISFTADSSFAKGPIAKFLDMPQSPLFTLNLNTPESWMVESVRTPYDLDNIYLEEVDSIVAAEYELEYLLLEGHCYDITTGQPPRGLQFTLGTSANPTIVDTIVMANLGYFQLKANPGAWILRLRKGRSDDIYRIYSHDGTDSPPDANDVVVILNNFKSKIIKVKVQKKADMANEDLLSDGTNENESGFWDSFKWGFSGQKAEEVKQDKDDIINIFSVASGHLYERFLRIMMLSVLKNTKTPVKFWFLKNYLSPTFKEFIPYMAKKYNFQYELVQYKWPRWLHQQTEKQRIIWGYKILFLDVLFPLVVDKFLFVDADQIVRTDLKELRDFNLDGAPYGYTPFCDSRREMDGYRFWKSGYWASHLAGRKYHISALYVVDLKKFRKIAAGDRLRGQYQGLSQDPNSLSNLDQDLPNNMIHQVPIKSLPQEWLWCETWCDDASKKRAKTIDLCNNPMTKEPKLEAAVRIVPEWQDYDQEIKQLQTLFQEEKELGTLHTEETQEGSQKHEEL
# wild type NIT-1 cells = experiment: Arginine-induced insulin secretion by wild type NIT-1 cells (ELISA); format: cell-based, mouse; conditions: arginine 0.1-20 mM, 10 minutes, FIG. 4
# [2] = test system: NIT-1 cells in which insulin secretion regulation factor was forcibly expressed; experiment: Insulin secretion by NIT-1 cells with forced expression of insulin secretion regulation factor (ELISA); format: cell-based, mouse
# [3] = target: T2, insulin secretion regulation factor (ATIS1) (Mus musculus, UniProt Q6P5E4); experiment: Release of radiolabelled ATIS1 from arginine-immobilized agarose by amino acids and sugars; format: binding; conditions: silver stained gel, FIG. 8A
# T2 construct: made in house; host or cells: cell-free: TNT Quick coupled transcription/translation system (Promega)
# [4] = target: T2, insulin secretion regulation factor (ATIS1); experiment: Release of radiolabelled ATIS1 from insulin-immobilized agarose by test substance; format: binding
# [5] = target: T1, insulin secretion regulation factor; experiment: Disconnection of insulin from insulin secretion regulation factor by arginine; format: binding; parameters: made in house; host or cells: Escherichia coli; conditions: depending on amount of arginine added, FIG. 3C
# Target sequence in this assay (Q6P5E4 43-1551): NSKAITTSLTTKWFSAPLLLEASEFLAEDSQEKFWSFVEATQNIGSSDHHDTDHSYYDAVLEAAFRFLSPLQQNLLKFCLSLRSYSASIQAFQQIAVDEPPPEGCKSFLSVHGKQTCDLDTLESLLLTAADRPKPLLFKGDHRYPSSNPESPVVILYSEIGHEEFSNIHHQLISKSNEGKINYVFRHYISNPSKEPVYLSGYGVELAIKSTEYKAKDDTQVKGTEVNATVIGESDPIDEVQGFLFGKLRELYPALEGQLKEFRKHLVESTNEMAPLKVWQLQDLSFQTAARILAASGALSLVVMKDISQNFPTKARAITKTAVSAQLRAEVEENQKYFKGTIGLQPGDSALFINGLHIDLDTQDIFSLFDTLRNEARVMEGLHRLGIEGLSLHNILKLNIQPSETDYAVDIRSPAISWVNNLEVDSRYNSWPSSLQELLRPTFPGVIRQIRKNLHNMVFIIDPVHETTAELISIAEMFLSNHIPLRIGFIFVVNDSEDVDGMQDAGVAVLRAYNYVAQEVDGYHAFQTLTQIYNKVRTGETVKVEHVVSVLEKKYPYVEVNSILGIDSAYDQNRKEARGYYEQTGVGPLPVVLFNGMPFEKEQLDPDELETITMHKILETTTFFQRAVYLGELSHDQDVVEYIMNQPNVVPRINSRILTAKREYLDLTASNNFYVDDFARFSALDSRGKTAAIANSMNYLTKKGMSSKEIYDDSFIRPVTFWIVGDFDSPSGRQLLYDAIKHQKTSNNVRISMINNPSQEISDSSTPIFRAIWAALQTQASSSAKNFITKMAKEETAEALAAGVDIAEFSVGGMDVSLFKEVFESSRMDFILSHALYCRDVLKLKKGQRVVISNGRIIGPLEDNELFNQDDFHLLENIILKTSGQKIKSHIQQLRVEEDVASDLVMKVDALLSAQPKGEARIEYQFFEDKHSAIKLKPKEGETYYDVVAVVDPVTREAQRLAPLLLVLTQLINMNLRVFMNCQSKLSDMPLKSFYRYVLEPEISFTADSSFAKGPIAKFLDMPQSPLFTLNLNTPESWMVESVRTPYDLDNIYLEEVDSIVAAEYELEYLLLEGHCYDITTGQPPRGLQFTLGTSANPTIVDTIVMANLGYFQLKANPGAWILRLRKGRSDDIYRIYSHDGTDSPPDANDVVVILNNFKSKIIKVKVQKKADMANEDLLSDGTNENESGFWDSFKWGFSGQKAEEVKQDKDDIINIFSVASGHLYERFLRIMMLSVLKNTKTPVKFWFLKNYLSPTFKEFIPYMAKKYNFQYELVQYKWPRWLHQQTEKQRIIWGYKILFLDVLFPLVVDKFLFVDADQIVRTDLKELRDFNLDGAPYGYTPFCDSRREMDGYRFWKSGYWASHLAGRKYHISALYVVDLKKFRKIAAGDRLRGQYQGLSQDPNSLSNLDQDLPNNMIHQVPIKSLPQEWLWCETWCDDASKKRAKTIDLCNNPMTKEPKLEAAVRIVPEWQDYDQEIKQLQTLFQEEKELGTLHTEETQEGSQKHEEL
# [6] = test system: transformed cultured cells secreting fluorescently labeled insulin; experiment: Fluorescence microscopy of transformed cultured cells secreting fluorescently labeled insulin; format: cell-based; conditions: arginine 10 mM, 10 and 60 seconds after administration and thereafter, data not shown
# Procedure: Thus, transformed cultured cells were prepared so as to secrete fluorescently labeled insulin. Using the cells, it was possible to observe insulin secretion by arginine addition and temporal changes in the intracellular localization of insulin with a fluorescent microscope. […] This experimental system can also be applied to the screening of a candidate substance, other than arginine, that promotes insulin secretion.
# [7] = target: T1, insulin secretion regulation factor; experiment: Competitive inhibition of radiolabelled arginine binding to insulin secretion regulation factor; parameters: made in house; host or cells: Escherichia coli; conditions: increasing concentration of cold competitor, FIG. 2B, FIG. 3A
# Target sequence in this assay (Q6P5E4 43-1551): as above
# T2 sequence (Q6P5E4 43-1551): as above
structure (smiles),measurement,setting,value
N=C(N)NCCC[C@H](N)C(=O)O [arginine],resistance of insulin secretion regulation factor to chymotrypsin partial digestion,[1],significant resistance to chymotrypsin partial digestion
same,resistance of insulin secretion regulation factor to trypsin partial digestion,[1]; FIG. 2C,significant resistance to trypsin partial digestion
same,arginine-induced insulin secretion,wild type NIT-1 cells,"depending on arginine concentration, insulin secretion is promoted"
same,amount of insulin secreted per unit time,[2],about 2 pg/cell/min
same,interaction (binding) with insulin secretion regulation factor ATIS1,[3],interacted with the insulin secretion regulation factor
same,competition with insulin for insulin secretion regulation factor,[4],competes with insulin
same,insulin disconnected from insulin secretion regulation factor,[5],the amount of disconnected insulin increases
same,intracellular localization and secretion of fluorescently labeled insulin,[6],being extracellularly secreted thereafter resulting in the disappearance of fluorescence
same,radiolabelled arginine disconnected from insulin secretion regulation factor,[7],the radiolabelled arginine that had been bound was disconnected from insulin secretion regulation factor; also recorded: the amount of disconnected radiolabelled arginine increased
"N[C@@H](Cc1ccccc1)C(=O)O [Phenylalanine, phenylalanine]",interaction (binding) with insulin secretion regulation factor ATIS1,[3],did not bind to ATIS1
NCCCC[C@H](N)C(=O)O [lysine],interaction (binding) with insulin secretion regulation factor ATIS1,[3],interacted with the insulin secretion regulation factor
NC(=O)NCCC[C@H](N)C(=O)O [citrulline],interaction (binding) with insulin secretion regulation factor ATIS1,[3],did not exhibit the ATIS1 binding activity
CC(C)=CCc1cc(/C=C/C(=O)O)ccc1O [drupanin],amount of insulin secreted per unit time,"[2]; 10 mM substance, cultured 10 minutes, FIG. 6A",about 2 pg/cell/min
same,competition with insulin for insulin secretion regulation factor,"[4]; autoradiography, FIG. 6B",competes with insulin
NCCC[C@H](N)C(=O)O [ornithine],interaction (binding) with insulin secretion regulation factor ATIS1,[3],interacted with the insulin secretion regulation factor
